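Cells were grown in 96-well plates and exposed to each compound for 48 hours at five concentrations; endpoints were interpolated linearly between bracketing concentrations, or set to the highest concentration if not reached. At the TGI there is no net growth.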
Experiments:
Test in all cases: DTP human tumour cell line panel, 48 h
786-0 renal = tested on: 786-0 renal
A498 renal = tested on: A498 renal
A549 NSCLC = tested on: A549 NSCLC
ACHN renal = tested on: ACHN renal
CAKI-1 renal = tested on: CAKI-1 renal
CCRF-CEM leukemia = tested on: CCRF-CEM leukemia
COLO 205 colon = tested on: COLO 205 colon
DLD-1 colon = tested on: DLD-1 colon
DMS 114 small cell lung = tested on: DMS 114 small cell lung
DMS 273 small cell lung = tested on: DMS 273 small cell lung
EKVX NSCLC = tested on: EKVX NSCLC
HCC-2998 colon = tested on: HCC-2998 colon
HCT-116 colon = tested on: HCT-116 colon
HCT-15 colon = tested on: HCT-15 colon
HL-60(TB) leukemia = tested on: HL-60(TB) leukemia
HOP-18 NSCLC = tested on: HOP-18 NSCLC
HOP-92 NSCLC = tested on: HOP-92 NSCLC
HT29 colon = tested on: HT29 colon
IGROV1 ovarian = tested on: IGROV1 ovarian
K-562 leukemia = tested on: K-562 leukemia
KM12 colon = tested on: KM12 colon
KM20L2 colon = tested on: KM20L2 colon
LOX IMVI melanoma = tested on: LOX IMVI melanoma
LXFL 529 NSCLC = tested on: LXFL 529 NSCLC
M14 melanoma = tested on: M14 melanoma
M19-MEL melanoma = tested on: M19-MEL melanoma
MALME-3M melanoma = tested on: MALME-3M melanoma
MOLT-4 leukemia = tested on: MOLT-4 leukemia
NCI-H226 lung = tested on: NCI-H226 lung
NCI-H23 lung = tested on: NCI-H23 lung
NCI-H522 lung = tested on: NCI-H522 lung
OVCAR-3 ovarian = tested on: OVCAR-3 ovarian
OVCAR-4 ovarian = tested on: OVCAR-4 ovarian
OVCAR-5 ovarian = tested on: OVCAR-5 ovarian
OVCAR-8 ovarian = tested on: OVCAR-8 ovarian
RPMI-8226 leukemia = tested on: RPMI-8226 leukemia
RXF 393 renal = tested on: RXF 393 renal
RXF-631 renal = tested on: RXF-631 renal
SF-268 CNS = tested on: SF-268 CNS
SF-295 CNS = tested on: SF-295 CNS
SF-539 CNS = tested on: SF-539 CNS
SK-MEL-2 melanoma = tested on: SK-MEL-2 melanoma
SK-MEL-28 melanoma = tested on: SK-MEL-28 melanoma
SK-MEL-5 melanoma = tested on: SK-MEL-5 melanoma
SK-OV-3 ovarian = tested on: SK-OV-3 ovarian
SN12C renal = tested on: SN12C renal
SNB-19 CNS = tested on: SNB-19 CNS
SNB-75 CNS = tested on: SNB-75 CNS
SNB-78 CNS = tested on: SNB-78 CNS
SW-620 colon = tested on: SW-620 colon
TK-10 renal = tested on: TK-10 renal
U251 CNS = tested on: U251 CNS
UACC-257 melanoma = tested on: UACC-257 melanoma
UACC-62 melanoma = tested on: UACC-62 melanoma
UO-31 renal = tested on: UO-31 renal
HOP-62 NSCLC = tested on: HOP-62 NSCLC
NCI-H460 lung = tested on: NCI-H460 lung
SR leukemia = tested on: SR leukemia

Measured: TGI

CC12OC3(C)OC(=O)C(c4ccccc4)(O1)C3(C)O2 (stereo not drawn)
not listed: HOP-62 NSCLC | NCI-H460 lung | SR leukemia
> 100 µM: all other assays above

CC1=C(c2cc(C(=O)Nc3cc(C)ccc3C)nc(N)n2)Sc2ccccc2N1
> 100 µM: all assays above

CC(=O)NNc1nc(C)c(C(=O)/C=C/c2cccc([N+](=O)[O-])c2)s1
not listed: ACHN renal | OVCAR-4 ovarian | SNB-75 CNS
> 100 µM: all other assays above
